Structures can show the parent of a compound that is named as a salt.
How the values were obtained:
5-HT6 receptor [1] = biological target: T1, 5-HT6 receptor (Homo sapiens (Human), UniProt P50406); assay: Antagonistic activity test towards 5-HT6 receptors (serotonin-induced intracellular cAMP, LANCE cAMP kit, HEK 293 cells); type: cell-based; settings: read-out: IC50 in the setting of functional assay
Description: Antagonistic activity test of compounds of the general formulas 1 and 2 towards 5-HT6 receptors. Compounds of general formulas 1 and 2 were tested for their ability to prevent 5-HT6 receptors activation by serotonin. HEK 293 cells (kidney cells of human's embryo) with artificially expressed 5-HT6 receptor, activation of which by serotonin leads to increasing the concentration of intracellular cAMP were used. Intracellular cAMP content was determined using reagent kit LANCE cAMP (PerkinElmer) according to the method described by the manufacturer of the kit [http://las.perkinelmer.com/content/Manuals]. Effectiveness of compounds was estimated by their ability to reduce the content of intracellular cAMP induced by serotonin.

5-HT6 receptor [2] = biological target: T1, 5-HT6 receptor; assay: Competitive radioligand binding ([3H] Lysergic acid diethylamide) to serotonin 5-HT6 receptors, HeLa cell membranes
Description: Screening of the disclosed compounds for their potential ability to interact with serotonin 5-HT6 receptors was carried out by the method of radioligand binding. For this purpose membrane species were prepared from HeLa cells expressing recombinant human 5-HT6 receptors, by means of cells homogenization in glass homogenizer with subsequent separation of plasmatic membranes from cell nucli, mitochondria's and cell wreckages by differential centrifugation. Determination of tested compounds binding to 5-HT6 receptors was carried out according to the method described in [Monsma F J Jr, Shen Y, Ward R P, Hamblin M W and Sibley D R, Cloning and expression of a novel serotonin receptor with high affinity for tricyclic psychotropic drugs. Mol Pharmacol. 43:320-327, 1993]. […] Methiothepin was used as a positive control. Binding of the tested compounds with the receptor was determined by their ability to displace the radioligand and was expressed in percent of displacement. The percent of displacement was calculated according to the following equation:
[formula] wherein: TA—was overall radioactivity in the presence of radioligand only, CA—was radioactivity in the presence of radioligand and tested compound and NA—was radioactivity in the presence of radioligand and Serotonin (5 μM).

T1 sequence (P50406 whole entry): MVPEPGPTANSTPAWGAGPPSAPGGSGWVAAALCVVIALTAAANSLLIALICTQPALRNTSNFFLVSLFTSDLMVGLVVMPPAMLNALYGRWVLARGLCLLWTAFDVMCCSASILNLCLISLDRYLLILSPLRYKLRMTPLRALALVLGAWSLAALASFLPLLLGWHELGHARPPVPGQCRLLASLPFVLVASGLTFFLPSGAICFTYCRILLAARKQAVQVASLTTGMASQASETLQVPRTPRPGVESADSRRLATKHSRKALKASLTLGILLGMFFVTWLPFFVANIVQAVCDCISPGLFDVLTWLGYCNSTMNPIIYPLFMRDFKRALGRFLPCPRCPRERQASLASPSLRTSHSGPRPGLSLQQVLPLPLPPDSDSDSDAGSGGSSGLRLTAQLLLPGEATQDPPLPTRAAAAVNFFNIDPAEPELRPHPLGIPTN

IC50 (5-HT6 receptor [1]) | IC50 (5-HT6 receptor [2]; 1.5 nM [3H] Lysergic acid diethylamide) | Ki (5-HT6 receptor [2]; Ki=IC50/(1+[L]/KD)) | Compound
29.7 nM | – | – | CNc1nn2c3c(cnc2c1S(=O)(=O)c1ccccc1)CN(C)CC3 [1.1(3), 2-methylamino-7-methyl-3-phenylsulfonyl-6,7,8,9-tetrahydropyrazolo[1,5-a]pyrido[4,3-e]pyrimidine]
– | 1.48 nM | 0.685 nM | CNc1nn2c3c(c(C)nc2c1S(=O)(=O)c1ccccc1)CN(C)CC3 [1.1(4)•HCl]
